Assays:
[1] = molecular target: T1, human serum albumin (HSA) (Homo sapiens, UniProt P02768); assay: Fluorescence quenching titration of HSA; conditions: for Kd: logKb; for ΔG°: one value per compound, temperature not given; for ΔH° / ΔS°: van't Hoff
[2] = molecular target: T1, human serum albumin (HSA); assay: Circular dichroism spectroscopy of HSA, secondary structure; parameters: purchased Sigma-Aldrich Chemie GmbH; conditions: for Change in % α-helix, (1:5) minus (1:0) / reduction in the percentage of α-helix: HSA
Description: When the small molecules interact with plasma proteins, changes in circular dichroism spectra are observed. Specific secondary structures such as α-helix or β-sheet have a characteristic band on the spectrum. For the first structure, two negative peaks near 209 and 220 nm are observed, while for the β-sheet, the negative band around 215 nm is present.
Circular dichroism (CD) spectra were measured on the Jasco J-1500 magnetic circular dichroism spectrometer (JASCO International CO., Tokyo, Japan) at room temperature with a 10 mm path length. […] The spectra were measured in the range of 205–250 nm at a scan rate speed of 50 nm/min, with a response time of 1 s. […] They were respectively added into 3 mL of protein solution successive portions of the solutions of the analyzed compounds. The analysis of the obtained results was performed using the CD Multivariate Calibration Creation and CD Multivariate SSE programs (JASCO International CO., Tokyo, Japan). Protein concentrations were converted here for mean residue molar concentrations.

COX-1 = molecular target: T2, COX-1 (Ovis aries, UniProt P05979); assay: COX-1 inhibition, Cayman's COX Colorimetric Inhibitor Screening Assay Kit
T2 sequence (P05979 25-600): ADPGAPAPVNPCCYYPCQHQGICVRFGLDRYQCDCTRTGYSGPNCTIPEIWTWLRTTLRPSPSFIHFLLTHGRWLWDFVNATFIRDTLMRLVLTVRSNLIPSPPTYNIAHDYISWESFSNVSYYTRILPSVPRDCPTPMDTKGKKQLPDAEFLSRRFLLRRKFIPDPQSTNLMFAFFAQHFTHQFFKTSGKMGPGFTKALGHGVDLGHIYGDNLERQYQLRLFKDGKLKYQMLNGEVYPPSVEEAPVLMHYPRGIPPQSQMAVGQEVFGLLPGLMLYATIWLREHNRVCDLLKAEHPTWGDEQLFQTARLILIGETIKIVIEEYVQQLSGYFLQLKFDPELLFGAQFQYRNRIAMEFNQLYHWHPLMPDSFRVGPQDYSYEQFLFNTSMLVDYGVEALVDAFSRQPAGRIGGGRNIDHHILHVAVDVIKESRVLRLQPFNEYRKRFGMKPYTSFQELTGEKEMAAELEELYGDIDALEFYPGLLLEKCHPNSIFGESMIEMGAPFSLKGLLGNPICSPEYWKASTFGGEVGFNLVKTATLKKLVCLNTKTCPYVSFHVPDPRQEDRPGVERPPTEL

COX-2 = molecular target: T3, COX-2 (Homo sapiens, UniProt P35354); assay: COX-2 inhibition, Cayman's COX Colorimetric Inhibitor Screening Assay Kit; conditions: for Selectivity Index (SI): COX-2 IC50/COX-1 IC50
T3 sequence (P35354 18-604): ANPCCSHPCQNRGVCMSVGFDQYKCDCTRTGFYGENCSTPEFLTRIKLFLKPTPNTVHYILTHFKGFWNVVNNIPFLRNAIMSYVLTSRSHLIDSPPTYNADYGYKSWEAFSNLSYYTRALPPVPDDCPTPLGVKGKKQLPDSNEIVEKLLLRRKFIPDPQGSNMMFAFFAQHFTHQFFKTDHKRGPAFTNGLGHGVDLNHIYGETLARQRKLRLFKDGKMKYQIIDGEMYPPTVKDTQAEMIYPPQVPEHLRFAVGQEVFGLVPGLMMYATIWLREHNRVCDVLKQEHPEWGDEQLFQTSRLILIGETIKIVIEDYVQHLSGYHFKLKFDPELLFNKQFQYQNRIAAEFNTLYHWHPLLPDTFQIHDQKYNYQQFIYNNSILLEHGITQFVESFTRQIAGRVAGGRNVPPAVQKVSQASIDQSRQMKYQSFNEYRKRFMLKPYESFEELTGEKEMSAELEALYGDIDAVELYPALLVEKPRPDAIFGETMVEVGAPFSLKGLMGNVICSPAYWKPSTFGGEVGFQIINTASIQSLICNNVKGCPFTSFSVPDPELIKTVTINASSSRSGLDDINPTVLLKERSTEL

T1 sequence (P02768 25-609): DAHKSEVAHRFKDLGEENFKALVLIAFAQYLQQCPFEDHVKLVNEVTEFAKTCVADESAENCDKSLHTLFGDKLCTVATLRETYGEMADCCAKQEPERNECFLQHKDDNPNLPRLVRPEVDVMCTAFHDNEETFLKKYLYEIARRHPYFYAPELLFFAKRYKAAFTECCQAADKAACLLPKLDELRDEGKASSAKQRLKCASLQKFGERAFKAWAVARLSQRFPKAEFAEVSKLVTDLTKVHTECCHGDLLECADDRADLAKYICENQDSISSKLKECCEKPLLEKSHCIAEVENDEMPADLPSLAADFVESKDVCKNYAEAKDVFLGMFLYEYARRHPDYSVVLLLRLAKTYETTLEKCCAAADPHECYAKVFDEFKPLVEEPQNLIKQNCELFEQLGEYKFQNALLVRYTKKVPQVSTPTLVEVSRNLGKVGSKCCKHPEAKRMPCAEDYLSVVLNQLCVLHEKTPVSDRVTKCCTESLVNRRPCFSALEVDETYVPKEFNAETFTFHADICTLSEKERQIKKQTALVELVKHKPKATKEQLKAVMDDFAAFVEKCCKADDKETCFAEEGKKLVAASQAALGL

Compound | Ksv ([1]; T 297 K) | kq ([1]; T 297 K) | n (number of binding sites) ([1]; T 297 K) | Ksv ([1]; T 303 K) | kq ([1]; T 303 K) | n (number of binding sites) ([1]; T 303 K) | Ksv ([1]; T 308 K) | kq ([1]; T 308 K) | n (number of binding sites) ([1]; T 308 K) | Kd ([1]; T 297 K) [µM] | Kd ([1]; T 303 K) [µM] | Kd ([1]; T 308 K) [µM] | ΔG° [1] [kcal/mol] | ΔH° [1] [kcal/mol] | ΔS° [1] [J·mol^−1·K^−1] | Change in % α-helix, (1:5) minus (1:0) [2] [%] | % Other ([2]; HSA:compound molar ratio 1:0.5) [%] | % α-Helix ([2]; HSA:compound molar ratio 1:0.5) [%] | % β-Sheet ([2]; HSA:compound molar ratio 1:0.5) [%] | % β-Turn ([2]; HSA:compound molar ratio 1:0.5) [%] | further results
Cc1c2c(OCC(=O)N/N=C/c3ccccc3)nn(C)c(=O)c2c(C)n1-c1cccc(Cl)c1 [Compound 5c, N-[(Z/E)-benzylideneamino]-2-[6-(3-chlorophenyl)-3,5,7-trimethyl-4-oxo-pyrrolo[3,4-d]pyridazin-1-yl]oxyacetamide] | 4.33± 0.25 × 10^5 dm^3·mol^−1 | 4.33 × 10^13 dm^3·mol^−1·s^−1 | 0.92 ± 0.06 | 3.86 ± 0.13 × 10^5 dm^3·mol^−1 | 3.86 × 10^13 dm^3·mol^−1·s^−1 | 0.90 ± 0.02 | 2.87 ± 0.12 × 10^5 dm^3·mol^−1 | 2.87 × 10^13 dm^3·mol^−1·s^−1 | 0.85 ± 0.04 | 6.17 | 8.91 | 26.3 | -7.163 | -23.45 | −229.47 | −1.6 | 19.6 | 68.4 | 2.9 | 9.1 | reduction in the percentage of α-helix [2]: 1.6%; % Other ([2]; HSA:compound molar ratio 1:1): 20.3%; % α-Helix ([2]; HSA:compound molar ratio 1:1): 68.0%; % β-Sheet ([2]; HSA:compound molar ratio 1:1): 2.5%; % β-Turn ([2]; HSA:compound molar ratio 1:1): 9.2%; % Other ([2]; HSA:compound molar ratio 1:2): 19.8%; % α-Helix ([2]; HSA:compound molar ratio 1:2): 67.8%; % β-Sheet ([2]; HSA:compound molar ratio 1:2): 3.2%; % β-Turn ([2]; HSA:compound molar ratio 1:2): 9.2%; % Other ([2]; HSA:compound molar ratio 1:3): 19.7%; % α-Helix ([2]; HSA:compound molar ratio 1:3): 67.8%; % β-Sheet ([2]; HSA:compound molar ratio 1:3): 3.3%; % β-Turn ([2]; HSA:compound molar ratio 1:3): 9.1%; % Other ([2]; HSA:compound molar ratio 1:5): 20.0%; % α-Helix ([2]; HSA:compound molar ratio 1:5): 67.3%; % β-Sheet ([2]; HSA:compound molar ratio 1:5): 3.5%; % β-Turn ([2]; HSA:compound molar ratio 1:5): 9.2%; IC50 (COX-1): 98.9 ± 1.6 µM; IC50 (COX-2): 23.6 ± 2.5 µM; Selectivity Index (SI) (COX-2): 0.23
Cc1c2c(OCC(=O)N/N=C/c3ccccc3)nn(C)c(=O)c2c(C)n1-c1ccccc1 [Compound 5b, N-[(Z/E)-benzylideneamino]-2-(3,5,7-trimethyl-4-oxo-6-phenyl-pyrrolo[3,4-d]pyridazin-1-yl)oxy-acetamide] | 5.55 ± 0.33 × 10^5 dm^3·mol^−1 | 5.55 × 10^13 dm^3·mol^−1·s^−1 | 1.15 ± 0.06 | 5.26 ± 0.28 × 10^5 dm^3·mol^−1 | 5.26 × 10^13 dm^3·mol^−1·s^−1 | 1.10 ± 0.10 | 4.75 ± 0.23 × 10^5 dm^3·mol^−1 | 4.75 × 10^13 dm^3·mol^−1·s^−1 | 1.02 ± 0.05 | 0.263 | 0.49 | 1.45 | -9.001 | -27.77 | −264.38 | −2.4 | 20.9 | 67.7 | 2.2 | 9.3 | reduction in the percentage of α-helix [2]: 2.4%; % Other ([2]; HSA:compound molar ratio 1:1): 21.0%; % α-Helix ([2]; HSA:compound molar ratio 1:1): 67.1%; % β-Sheet ([2]; HSA:compound molar ratio 1:1): 2.5%; % β-Turn ([2]; HSA:compound molar ratio 1:1): 9.3%; % Other ([2]; HSA:compound molar ratio 1:2): 20.6%; % α-Helix ([2]; HSA:compound molar ratio 1:2): 66.9%; % β-Sheet ([2]; HSA:compound molar ratio 1:2): 3.2%; % β-Turn ([2]; HSA:compound molar ratio 1:2): 9.3%; % Other ([2]; HSA:compound molar ratio 1:3): 20.5%; % α-Helix ([2]; HSA:compound molar ratio 1:3): 66.6%; % β-Sheet ([2]; HSA:compound molar ratio 1:3): 3.7%; % β-Turn ([2]; HSA:compound molar ratio 1:3): 9.3%; % Other ([2]; HSA:compound molar ratio 1:5): 20.2%; % α-Helix ([2]; HSA:compound molar ratio 1:5): 66.3%; % β-Sheet ([2]; HSA:compound molar ratio 1:5): 4.3%; % β-Turn ([2]; HSA:compound molar ratio 1:5): 9.2%; IC50 (COX-1): 90.1 ± 1.8 µM; IC50 (COX-2): 22.7 ± 1.2 µM; Selectivity Index (SI) (COX-2): 0.25
CCCCn1c(C)c2c(OCC(=O)N/N=C/c3ccccc3)nn(C)c(=O)c2c1C [Compound 5a, N-[(Z/E)-benzylideneamino]-2-(6-butyl-3,5,7-trimethyl-4-oxo-pyrrolo[3,4-d]pyridazin-1-yl)oxy-acetamide] | 1.87 ± 0.04 × 10^5 dm^3·mol^−1 | 1.87 × 10^13 dm^3·mol^−1·s^−1 | 0.97 ± 0.04 | 1.71 ± 0.03 × 10^5 dm^3·mol^−1 | 1.71 × 10^13 dm^3·mol^−1·s^−1 | 0.95 ± 0.02 | 1.41 ± 0.03 × 10^5 dm^3·mol^−1 | 1.41 × 10^13 dm^3·mol^−1·s^−1 | 0.92 ± 0.02 | 7.94 | 11.2 | 20.9 | -6.979 | -16.14 | −129.11 | −2.0 | 20.7 | 67.3 | 2.8 | 9.2 | % Other ([2]; HSA:compound molar ratio 1:1): 20.9%; % α-Helix ([2]; HSA:compound molar ratio 1:1): 66.9%; % β-Sheet ([2]; HSA:compound molar ratio 1:1): 2.8%; % β-Turn ([2]; HSA:compound molar ratio 1:1): 9.3%; % Other ([2]; HSA:compound molar ratio 1:2): 21.5%; % α-Helix ([2]; HSA:compound molar ratio 1:2): 66.3%; % β-Sheet ([2]; HSA:compound molar ratio 1:2): 2.7%; % β-Turn ([2]; HSA:compound molar ratio 1:2): 9.4%; % Other ([2]; HSA:compound molar ratio 1:3): 21.6%; % α-Helix ([2]; HSA:compound molar ratio 1:3): 66.2%; % β-Sheet ([2]; HSA:compound molar ratio 1:3): 2.8%; % β-Turn ([2]; HSA:compound molar ratio 1:3): 9.5%; % Other ([2]; HSA:compound molar ratio 1:5): 20.3%; % α-Helix ([2]; HSA:compound molar ratio 1:5): 66.1%; % β-Sheet ([2]; HSA:compound molar ratio 1:5): 4.3%; % β-Turn ([2]; HSA:compound molar ratio 1:5): 9.3%; IC50 (COX-1): 81.9 ± 2.1 µM; IC50 (COX-2): 17.2 ± 1.4 µM; Selectivity Index (SI) (COX-2): 0.21

From article PMC10383271
